Experimental data: the NIST ThermoML archive (doi:10.1016/j.jct.2009.03.010)
± gives the expanded uncertainty stated by the source.

How the values were obtained:
[1] = Crystal; DTA
[2] = Molar enthalpy of transition or fusion; details: Crystal; DSC
[3] = molar heat capacity at constant pressure; details: 101.33 kPa, Crystal

c1cc2ccc3ccc4ccc5ccc6ccc1c1c2c3c4c5c61 [coronene]
Details	Molar enthalpy of transition or fusion [kcal/mol]	Normal melting temperature [°C]
[1]	–	436 ± 1.6
[2]	5.07 ± 0.359	–

molar heat capacity at constant pressure [J/K/mol], [3]
Details	DSC	Small sample (50 mg) DSC
295 K	–	312.97 ± 6.3
298.15 K	317.46 ± 14	317.17 ± 6.3
300 K	–	318.97 ± 6.4
310 K	–	333.99 ± 6.7
320 K	–	344.5 ± 6.9
330 K	–	355.32 ± 7.1
340 K	–	366.43 ± 7.3
350 K	–	373.94 ± 7.5
360 K	–	383.85 ± 7.7
370 K	–	394.66 ± 7.9
380 K	–	405.18 ± 8.1
410 K	–	417.19 ± 8.3
420 K	–	422.3 ± 8.4
430 K	–	435.51 ± 8.7
440 K	–	439.12 ± 8.8
450 K	–	447.82 ± 9
460 K	–	453.83 ± 9.1
470 K	–	463.44 ± 9.3
478 K	–	470.65 ± 9.4
